Tests used:
[1] = tested on: CFA-induced edema of paw / mechanical-hyperalgesia; assay: CFA-hindpaw inflammation, paw pressure test (CFA-PPT), topical application to the paw; format: in vivo, rat
Experimental: In comparative example 2 and inventive examples 5 to 8 as described below, a compound or combination of compounds was administered topically to the paw by means of an ointment or solution (FIGS. 10 to 18).
The efficacy was tested when a compound or a compositions of compounds was administered topically as an ointment or a solution. The study was performed on male albino rats (150-180 g body weight) to which an edema of paw was induced by injection of Complete Freunds Adjuvant (CFA). CFA is a composition of inactivated and dried Myobacteria tuberculoses, emulsified in mineral oil which is used as an immunopotentiator causing a painful reaction that lasts 7-8 days after subcutaneous injection.
The studies of comparative example 2 and inventive examples 5 to 8 were performed according to the following procedure: 50 μL of CFA were injected sub plantar into the right hind paw, inducing mechanical-hyperalgesia after 24 hours. […]
The pain was measured by pressing a pointer on the inflamed paw. The pointer exerts a force, increasing at a constant rate, monitored by a linear scale. […] Efficacy of the test compounds is expressed as a percent change of withdrawal threshold after compound administration to the pre-value (withdrawal threshold before compound administration).

CFA-hindpaw inflammation = assay: CFA-hindpaw inflammation, paw pressure test (CFA-PPT), intraperitoneal injection; format: in vivo, rat
Experimental: An interaction study was performed as a single dose study in the CFA-hindpaw inflammation, paw pressure test.
In comparative example 1 and inventive examples 1 to 4 described below, a compound or combination of compounds was administered by intraperitoneal injection (FIGS. 1 to 9).
The pain was measured by pressing a pointer on the inflamed paw. The pointer exerts a force, increasing at a constant rate, monitored by a linear scale. Pain is deemed to be perceived one the rat starts to withdraw the paw. This value (withdrawal threshold in gram) is the pressure at which the animal feels pain (cut-off 450 g). Efficacy of the test compounds is expressed as a percent change of withdrawal threshold after compound administration to the pre-value (withdrawal threshold before compound administration).

SMILES	efficacy in CFA-PPT when topically administered alone ([1]; Diclofenac alone, 40 mg/ml to 80 mg/ml)	efficacy in CFA-PPT when administered alone (CFA-hindpaw inflammation; Diclofenac alone, dose range 21.5 mg/kg to 100 mg/kg ip)	efficacy in CFA-PPT when topically administered alone ([1]; Lidocaine alone, 30 mg/ml to 60 mg/ml)	efficacy in CFA-PPT when administered alone (CFA-hindpaw inflammation; Lidocaine alone, dose range 10 mg/kg to 46.4 mg/kg ip)
O=C(O)Cc1ccccc1Nc1c(Cl)cccc1Cl [Diclofenac, 2-(2,6-dichloranilino) phenylacetic acid]	dose dependent efficacy	dose dependent efficacy		
CCN(CC)CC(=O)Nc1c(C)cccc1C [Lidocaine, 2-(diethylamino)-N-(2,6-dimethylphenyl)acetamide]			dose dependent efficacy	dose dependent efficacy
